# Test results: the supplement of paper PMC10733146
# What was measured:
# Test in all cases: viability relative to DMSO control (fraction); higher = less drug effect (more viable cells)
# Details in all cases: 48 h
# [1] = system: primary ALL patient cells (S088)
# Outline: (§1)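 Cells were incubated for 48 h at 37 °C and 5% CO2 in RPMI-1640 with penicillin/streptomycin, L-glutamine and human serum, at 4 × 10^4 cells per well in 384-well plates with compounds pre-plated at five concentrations, one well each. These were primary mononuclear tumour cells, fresh or cryopreserved, Ficoll-isolated from blood or bone marrow or obtained from processed lymph node. Viability values are CellTiter-Glo luminescence relative to the median of 16 inner DMSO wells.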
# [2] = system: primary AML patient cells (S007)
# Outline: as §1
# [3] = system: primary AML patient cells (S009)
# Outline: as §1
# [4] = system: primary AML patient cells (S011)
# Outline: as §1
# [5] = system: primary AML patient cells (S021)
# Outline: as §1
# [6] = system: primary AML patient cells (S027)
# Outline: as §1
# [7] = system: primary AML patient cells (S060)
# Outline: as §1
# [8] = system: primary AML patient cells (S081)
# Outline: as §1
# [9] = system: primary B-PLL patient cells (S016)
# Outline: as §1
# [10] = system: primary DLBCL patient cells (S082)
# Outline: as §1
# [11] = system: primary FL patient cells (S087)
# Outline: as §1
# [12] = system: primary MCL patient cells (S041)
# Outline: as §1
# [13] = system: primary MCL patient cells (S063)
# Outline: as §1
# [14] = system: primary T-PLL patient cells (S008)
# Outline: as §1
structure (smiles),measurement,setting,value
CCc1cnn2c(NCc3ccc[n+]([O-])c3)cc(N3CCCC[C@H]3CCO)nc12 [Dinaciclib],viability,[1]; 0.0016 µM,0.644
same,viability,[1]; 0.008 µM,0.0942
same,viability,[1]; 0.04 µM,0.0343
same,viability,[1]; 0.2 µM,0.0308
same,viability,[1]; 1 µM,0.0318
same,viability,[2]; 0.0016 µM,0.637
same,viability,[2]; 0.008 µM,0.175
same,viability,[2]; 0.04 µM,0.118
same,viability,[2]; 0.2 µM,0.12
same,viability,[2]; 1 µM,0.141
same,viability,[3]; 0.0016 µM,1.06
same,viability,[3]; 0.008 µM,0.189
same,viability,[3]; 0.04 µM,0.0815
same,viability,[3]; 0.2 µM,0.0774
same,viability,[3]; 1 µM,0.0863
same,viability,[4]; 0.0016 µM,1.23
same,viability,[4]; 0.008 µM,0.155
same,viability,[4]; 0.04 µM,0.0402
same,viability,[4]; 0.2 µM,0.0329
same,viability,[4]; 1 µM,0.0263
same,viability,[5]; 0.0016 µM,1.38
same,viability,[5]; 0.008 µM,0.424
same,viability,[5]; 0.04 µM,0.161
same,viability,[5]; 0.2 µM,0.151
same,viability,[5]; 1 µM,0.139
same,viability,[6]; 0.0016 µM,1.05
same,viability,[6]; 0.008 µM,0.12
same,viability,[6]; 0.04 µM,0.0422
same,viability,[6]; 0.2 µM,0.0393
same,viability,[6]; 1 µM,0.0395
same,viability,[7]; 0.0016 µM,1.12
same,viability,[7]; 0.008 µM,0.0838
same,viability,[7]; 0.04 µM,0.0221
same,viability,[7]; 0.2 µM,0.0219
same,viability,[7]; 1 µM,0.0206
same,viability,[8]; 0.0016 µM,1.02
same,viability,[8]; 0.008 µM,0.0549
same,viability,[8]; 0.04 µM,0.0232
same,viability,[8]; 0.2 µM,0.0223
same,viability,[8]; 1 µM,0.0211
same,viability,[9]; 0.0016 µM,1.07
same,viability,[9]; 0.008 µM,0.047
same,viability,[9]; 0.04 µM,0.0409
same,viability,[9]; 0.2 µM,0.0324
same,viability,[9]; 1 µM,0.0324
same,viability,[10]; 0.0016 µM,0.98
same,viability,[10]; 0.008 µM,0.102
same,viability,[10]; 0.04 µM,0.0294
same,viability,[10]; 0.2 µM,0.0307
same,viability,[10]; 1 µM,0.0332
same,viability,[11]; 0.0016 µM,0.962
same,viability,[11]; 0.008 µM,0.641
same,viability,[11]; 0.04 µM,0.759
same,viability,[11]; 0.2 µM,0.756
same,viability,[11]; 1 µM,0.829
same,viability,[12]; 0.0016 µM,0.938
same,viability,[12]; 0.008 µM,0.0691
same,viability,[12]; 0.04 µM,0.0382
same,viability,[12]; 0.2 µM,0.0378
same,viability,[12]; 1 µM,0.0402
same,viability,[13]; 0.0016 µM,1
same,viability,[13]; 0.008 µM,0.0229
same,viability,[13]; 0.04 µM,0.0173
same,viability,[13]; 0.2 µM,0.0173
same,viability,[13]; 1 µM,0.0157
same,viability,[14]; 0.0016 µM,0.971
same,viability,[14]; 0.008 µM,0.736
same,viability,[14]; 0.04 µM,0.127
same,viability,[14]; 0.2 µM,0.128
same,viability,[14]; 1 µM,0.143
CCN1CCN(Cc2ccc(Nc3ncc(F)c(-c4cc(F)c5nc(C)n(C(C)C)c5c4)n3)nc2)CC1,viability,[1]; 0.024 µM,0.616
same,viability,[1]; 0.12 µM,0.625
same,viability,[1]; 0.6 µM,0.517
same,viability,[1]; 3 µM,0.169
same,viability,[1]; 15 µM,0.012
same,viability,[2]; 0.024 µM,0.759
same,viability,[2]; 0.12 µM,0.725
same,viability,[2]; 0.6 µM,0.782
same,viability,[2]; 3 µM,0.668
same,viability,[2]; 15 µM,0.0289
same,viability,[3]; 0.024 µM,1.05
same,viability,[3]; 0.12 µM,0.955
same,viability,[3]; 0.6 µM,1.03
same,viability,[3]; 3 µM,0.451
same,viability,[3]; 15 µM,0.0338
same,viability,[4]; 0.024 µM,1.74
same,viability,[4]; 0.12 µM,1.08
same,viability,[4]; 0.6 µM,1.09
same,viability,[4]; 3 µM,0.0537
same,viability,[4]; 15 µM,0.01
same,viability,[5]; 0.024 µM,1.01
same,viability,[5]; 0.12 µM,0.962
same,viability,[5]; 0.6 µM,1.22
same,viability,[5]; 3 µM,0.377
same,viability,[5]; 15 µM,0.0751
same,viability,[6]; 0.024 µM,1.05
same,viability,[6]; 0.12 µM,1.05
same,viability,[6]; 0.6 µM,0.953
same,viability,[6]; 3 µM,0.313
same,viability,[6]; 15 µM,0.018
same,viability,[7]; 0.024 µM,1.08
same,viability,[7]; 0.12 µM,1.01
same,viability,[7]; 0.6 µM,0.946
same,viability,[7]; 3 µM,0.534
same,viability,[7]; 15 µM,0.112
same,viability,[8]; 0.024 µM,0.929
same,viability,[8]; 0.12 µM,0.868
same,viability,[8]; 0.6 µM,0.833
same,viability,[8]; 3 µM,0.537
same,viability,[8]; 15 µM,0.174
same,viability,[9]; 0.024 µM,0.997
same,viability,[9]; 0.12 µM,1.09
same,viability,[9]; 0.6 µM,0.984
same,viability,[9]; 3 µM,0.505
same,viability,[9]; 15 µM,0.0112
same,viability,[10]; 0.024 µM,0.915
same,viability,[10]; 0.12 µM,1.01
same,viability,[10]; 0.6 µM,1.19
same,viability,[10]; 3 µM,0.543
same,viability,[10]; 15 µM,0.0123
same,viability,[11]; 0.024 µM,1.01
same,viability,[11]; 0.12 µM,0.934
same,viability,[11]; 0.6 µM,0.962
same,viability,[11]; 3 µM,0.763
same,viability,[11]; 15 µM,0.0109
same,viability,[12]; 0.024 µM,0.938
same,viability,[12]; 0.12 µM,0.812
same,viability,[12]; 0.6 µM,0.757
same,viability,[12]; 3 µM,0.0785
same,viability,[12]; 15 µM,0.00539
same,viability,[13]; 0.024 µM,1.08
same,viability,[13]; 0.12 µM,0.99
same,viability,[13]; 0.6 µM,0.951
same,viability,[13]; 3 µM,0.605
same,viability,[13]; 15 µM,0.00904
same,viability,[14]; 0.024 µM,1.04
same,viability,[14]; 0.12 µM,0.981
same,viability,[14]; 0.6 µM,1.08
same,viability,[14]; 3 µM,0.415
same,viability,[14]; 15 µM,0.0352
